Literature values, collected in USRE39480E1, “Chromium/biotin treatment of type II diabetes” (Nutrition 21, Inc., priority 1997, dated 2007).

Tests used:
[1] = system: Type I diabetics; conditions: daily oral dose of 16 mg; insulin injections temporarily discontinued
[2] = system: rats made diabetic by injection with streptozotocin; conditions: high-dose oral or parenteral biotin
[3] = system: pre-diabetic Otsuka Long-Evans Tokushima Fatty rats; conditions: high-dose oral or parenteral biotin
[4] = system: diabetic KK mice; conditions: high-dose oral or parenteral biotin
[5] = oral biotin intakes of up to 200 mg daily
[6] = system: poorly-controlled type II diabetics; conditions: 3 mg biotin three times per day
[7] = system: individuals with Type II diabetes; conditions: 1,000 μg chromium per day as chromic tripicolinate
[8] = system: Type II diabetes; conditions: doses which provide between 50 and 500 μg of chromium

For O=C(O)CCCC[C@@H]1SC[C@@H]2NC(=O)N[C@@H]21 [biotin], the “fasting plasma glucose levels” value [1] is listed as “lowered fasting plasma glucose levels”, the oral glucose tolerance [2] is listed as “improve oral glucose tolerance” and the oral glucose tolerance [3] is listed as “improve oral glucose tolerance”. The oral glucose tolerance [4] was “improve oral glucose tolerance”, the “side effects or toxicities” value [5] was “no side effects or toxicities were noted” and the fasting insulin levels [6] was “did not decline”. For the same compound, the glucose levels [6] was “sharp decline” and the “pancreatic beta cell function” value [6] was “improved pancreatic beta cell function”.
In the case of chromic tripicolinate, the “decrease in glycosylated hemoglobin” value [7] is given as 30%, the “change in glycosylated hemoglobin” value [8] is given as “small decrease” and the “glycosylated hemoglobin value obtained after chromic tripicolinate treatment” value ([8]; still within the diabetic range) is given as 10.4%.
